Reference: BindingDB's records for doi:10.1021/jm960594+ (Nippon Zoki Pharmaceutical, 1997)

Target: T1, Aldo-keto reductase family 1 member A1 (Rattus norvegicus, UniProt P51635)
T1 sequence (P51635 whole entry): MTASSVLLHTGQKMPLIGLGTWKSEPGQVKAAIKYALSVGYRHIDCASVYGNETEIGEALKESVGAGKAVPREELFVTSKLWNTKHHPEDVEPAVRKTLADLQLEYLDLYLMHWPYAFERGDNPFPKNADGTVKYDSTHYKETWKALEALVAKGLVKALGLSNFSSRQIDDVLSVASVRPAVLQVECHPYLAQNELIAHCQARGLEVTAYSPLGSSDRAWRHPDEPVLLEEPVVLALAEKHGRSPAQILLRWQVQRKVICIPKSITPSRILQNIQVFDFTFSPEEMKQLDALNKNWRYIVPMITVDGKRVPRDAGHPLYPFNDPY
Experiment: In vitro inhibitory activity against rat kidney aldehyde reductase(ALR).

IC50 [µM] | Compound
> 100 | O=C(O)Cn1c(O)c(O)n(Cc2cccc([N+](=O)[O-])c2)c1=O
> 100 | O=C(O)Cn1c(=O)cc(O)n(Cc2cccc([N+](=O)[O-])c2)c1=O [[3-(3-Nitro-benzyl)-2,4,6-trioxo-tetrahydro-pyrimidin-1-yl]-acetic acid]
> 100 | O=C(O)Cn1cc(O)n(Cc2cccc([N+](=O)[O-])c2)c1=O [[3-(3-Nitro-benzyl)-2,4-dioxo-imidazolidin-1-yl]-acetic acid]
> 100 | O=C(O)Cn1c(O)cn(Cc2cccc([N+](=O)[O-])c2)c1=O [[3-(3-Nitro-benzyl)-2,5-dioxo-imidazolidin-1-yl]-acetic acid]
